Test [1] in a line: Displacement of [3H]SB-2587891 from Escherichia coli ribosomes. In kind it is subcellular, Ribosome. In general terms: Loss of bound radioactivity is the signal in a displacement assay; it reports binding, not function.
The test system of the next test is Streptococcus pyogenes. As to the kind of experiment: Antimicrobial activity against Streptococcus pyogenes. In kind it is functional.
The subject of the next test is Staphylococcus aureus. Nature of the test: Antimicrobial activity against Staphylococcus aureus. Format: functional.

Molecules are shown by their SMILES.

On to `C=C[C@]1(C)C[C@@H](OC(=O)CSC2CCNCC2)[C@]2(C)[C@H](C)CC[C@]3(CCC(=O)[C@H]32)[C@@H](C)[C@@H]1O`, for which the dissociation constant Kd in test [1] is 7.5 nM.
With `C=C[C@]1(C)C[C@@H](OC(=O)NC(=O)c2ccc(N)nn2)[C@]2(C)[C@H](C)CC[C@]3(C[C@H](O)C(=O)[C@H]32)[C@@H](C)[C@@H]1O`, binding in test [1] was characterised by a dissociation constant (Kd) of 11.1 nM.
Compound `C=C[C@]1(C)C[C@@H](OC(=O)CS[C@@H]2C[C@H]3CC[C@@H](C2)N3C)[C@]2(C)[C@H](C)CC[C@]3(CCC(=O)[C@H]32)[C@@H](C)[C@@H]1O` [RETAPAMULIN] yielded a Kd in test [1] of 2 nM. In addition, the MIC in the test with Streptococcus pyogenes and against Staphylococcus aureus was not above 0.5 µg/mL in each case.

Usually Kd stands for the free concentration of one partner at which half of the binding sites on the other are occupied at equilibrium, for simple one-to-one binding. The low end stands for a tighter complex, the high end for a looser complex. The term MIC denotes the smallest concentration in the dilution series that meets the test's criterion for growth inhibition.
